Reference: patent EP1709964A2, “A method of cosmetic depigmentation care by applying at least one aurone” (ENGELHARD LYON, priority 2005, dated 2006)

Target: T1, Human tyrosinase (Homo sapiens, UniProt P14679)
T1 construct: Normal human melanocytes (originating from abdominal plasty) are sown in a 24-well plate; endogenous in cells; host or cells: normal human melanocytes from abdominal plasty; donors of light, brown and black phototype
T1 sequence (P14679 19-529): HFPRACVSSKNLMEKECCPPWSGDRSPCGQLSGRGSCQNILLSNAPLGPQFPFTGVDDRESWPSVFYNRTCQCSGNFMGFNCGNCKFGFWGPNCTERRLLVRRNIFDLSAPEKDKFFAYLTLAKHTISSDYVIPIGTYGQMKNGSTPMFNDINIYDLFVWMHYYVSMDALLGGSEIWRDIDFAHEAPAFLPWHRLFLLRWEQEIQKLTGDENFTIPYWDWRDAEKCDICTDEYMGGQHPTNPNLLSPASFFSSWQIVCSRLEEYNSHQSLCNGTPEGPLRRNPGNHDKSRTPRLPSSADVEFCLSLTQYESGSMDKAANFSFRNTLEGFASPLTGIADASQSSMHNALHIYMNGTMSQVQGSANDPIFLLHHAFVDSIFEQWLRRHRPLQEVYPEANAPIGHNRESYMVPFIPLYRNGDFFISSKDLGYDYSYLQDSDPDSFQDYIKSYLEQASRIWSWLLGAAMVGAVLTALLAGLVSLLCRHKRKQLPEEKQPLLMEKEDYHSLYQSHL
Test: Inhibition of human tyrosinase in a monolayer after 24 h application of the actives on normal human melanocytes (MBTH/L-Dopa, OD 490 nm/protein)
Type: cell-based
Conditions: 0.03%; model of Example 15
Method: Normal human melanocytes (originating from abdominal plasty) are sown in a 24-well plate at the rate of 80,000 cells per well. They are cultivated up to confluence and the actives are applied for 24 hours in the culture media. After 24 hours, the media are removed and the melanocytes are picked up by mechanical action. An extraction is made by heat shock and the supernatants are then recovered and then incubated with MBTH (Sigma) and L-Dopa (Sigma).
The compound obtained in Example 9b was tested on melanocytes originating from various donors but of light phototypes according to the method described in Example 15. […] Table 6 : Inhibition of tyrosinase by compound 9b on 4 different donors.
The compound obtained in Example 9b is tested on cultures of melanocytes originating from 2 donors of brown phototypes and from one donor of negroid phototype. The method applied is that described in Example 15.
A study is made with molecules known in the literature for their depigmenting activity. These molecules are applied to the model described in Example 15 so as to compare their efficiency with respect to the aurones described above.

| Compound | Inhibition (%) |
| --- | --- |
| O=C1O[C@H]([C@@H](O)CO)C(O)=C1O [VitC, Vitamin C, reference compound] | -5.68% |

Same assay, conditions: 0.3%; model of Example 15

| Compound | Inhibition (%) |
| --- | --- |
| O=C1O[C@H]([C@@H](O)CO)C(O)=C1O [VitC, Vitamin C, reference compound] | 49.28% |

Same assay, conditions: 3%; model of Example 15

| Compound | Inhibition (%) |
| --- | --- |
| O=C1O[C@H]([C@@H](O)CO)C(O)=C1O [VitC, Vitamin C, reference compound] | 97.77% |

Same assay, conditions: 10^-4M; 24 hours

| Compound | Inhibition of human tyrosinase after application on normal human melanocytes, percentage inhibition |
| --- | --- |
| O=C1/C(=C/c2ccccc2)Oc2cc(O)cc(O)c21 [Example 7, (Z)-2-Benzylidene-(4,6-dihydroxy) benzofuran-3(2H)-one] | 3.37 ± 4.8% |

Same assay, conditions: 10^-4M; 24 hours; read-out: Inhibition of human tyrosinase after application on normal human melanocytes, percentage inhibition

| Compound | inhibition at 100 µM |
| --- | --- |
| O=c1cc(-c2ccc(O)cc2)oc2cc(O)cc(O)c12 [Apigenin, reference compound] | -59.1 ± 23% |
| CCc1ccc(/C=C2\Oc3cc(O)ccc3C2=O)cc1 [Example 3a, (Z)-2-(4'-Ethyl)Benzylidene-6-Hydroxybenzofuran-3(2H)-one] | 0% |
| CCc1ccccc1/C=C1\Oc2cc(O)ccc2C1=O [Example 3b, (Z)-2-(2'-Ethyl)Benzylidene-6-Hydroxybenzofuran-3(2H)-one] | 0% |
| COc1cc(OC)c2c(c1)O/C(=C\c1ccc(S(=O)(=O)O)cc1)C2=O [Example 5e, (Z)-4,6-dimethoxy-2-(4'-sulfonatebenzylidene)benzofuran-3(2H)-one] | 0% |
| COc1cc(OC)c2c(c1)O/C(=C\c1ccc(S(=O)(=O)O)cc1S(=O)(=O)O)C2=O [Example 5f, (Z)-4,6-dimethoxy-2-(2',4'-disulfonatebenzylidene)benzofuran-3(2H)-one] | 9.36% |
| COc1cc(OC)c2c(c1)O/C(=C\c1ccco1)C2=O [Example 5m, (Z)-4,6-Dimethoxy-2-[(furan)methylene]benzofuran-3(2H)-one] | 19.5% |
| CCc1ccc(/C=C2\Oc3cc(OC)cc(OC)c3C2=O)o1 [Example 5n, (Z)-4,6-Dimethoxy-2-[(5-ethylfuran)methylene]benzofuran-3(2H)-one] | 7.8% |
| COc1cc(OC)c2c(c1)O/C(=C\c1cc(C)c(C)o1)C2=O [Example 5o, (Z)-4,6-Dimethoxy-2-[(4,5-dimethylfuran)methylene]benzofuran-3(2H)-one] | 23.2% |
| COc1cc(OC)c2c(c1)O/C(=C\c1cccs1)C2=O [Example 5p, (Z)-4,6-Dimethoxy-2-[(thiophene)methylene]benzofuran-3(2H)-one] | 31.3% |
| COc1cc(OC)c2c(c1)O/C(=C\c1ccc(C)s1)C2=O [Example 5q, (Z)-4,6-Dimethoxy-2-[(5-methylthiophene)methylene]benzofuran-3(2H)-one] | 4.8% |
| CCc1ccc(/C=C2\Oc3cc(OC)cc(OC)c3C2=O)s1 [Example 5r, (Z)-4,6-Dimethoxy-2-[(5-ethylthiophene)methylene]benzofuran-3(2H)-one] | 11.9% |
| COc1cc(OC)c2c(c1)O/C(=C\c1[nH]c(C)cc1C)C2=O [Example 5t, (Z)-4,6-Dimethoxy-2-[(3,5-dimethylpyrrole)methylene]benzofuran-3(2H)-one] | 5.1% |
| O=C1/C(=C/c2ccccc2)Oc2cc(O)cc(O)c21 [Example 7, (Z)-2-Benzylidene-(4,6-dihydroxy) benzofuran-3(2H)-one] | 3.37% |
| O=C1/C(=C/c2ccc(S(=O)(=O)O)cc2)Oc2cc(O)cc(O)c21 [Example 7e] | 0% |
| CCCc1ccc(/C=C2\Oc3cc(O)cc(O)c3C2=O)cc1 [Example 7h] | 5.43% |
| CC(C)c1ccc(/C=C2\Oc3cc(O)cc(O)c3C2=O)cc1 [Example 7i] | 0% |
| CC(C)(C)c1ccc(/C=C2\Oc3cc(O)cc(O)c3C2=O)cc1 [Example 7k] | 0% |
| CCc1ccccc1/C=C1\Oc2cc(O)cc(O)c2C1=O [Example 7l] | 0% |
| O=C1/C(=C/c2ccco2)Oc2cc(O)cc(O)c21 [Example 7m, (Z)-4,6-Dihydroxy-2-[(furan)methylene]benzofuran-3(2H)-one] | 23.6% |
| CCc1ccc(/C=C2\Oc3cc(O)cc(O)c3C2=O)o1 [Example 7n, (Z)-4,6-Dihydroxy-2-[(5-ethylfuran)methylene]benzofuran-3(2H)-one] | 28.5% |
| Cc1cc(/C=C2\Oc3cc(O)cc(O)c3C2=O)oc1C [Example 7o, (Z)-4,6-Dihydroxy-2-[(4,5-dimethylfuran)methylene]benzofuran-3(2H)-one] | 13.6% |
| O=C1/C(=C/c2cccs2)Oc2cc(O)cc(O)c21 [Example 7p, (Z)-4,6-Dihydroxy-2-[(thiophene)methylene]benzofuran-3(2H)-one] | 35.2% |
| Cc1ccc(/C=C2\Oc3cc(O)cc(O)c3C2=O)s1 [Example 7q, (Z)-4,6-Dihydroxy-2-[(5-methylthiophene)methylene]benzofuran-3(2H)-one] | 16.4% |
| CCc1ccc(/C=C2\Oc3cc(O)cc(O)c3C2=O)s1 [Example 7r, (Z)-4,6-Dihydroxy-2-[(5-ethylthiophene)methylene]benzofuran-3(2H)-one] | 13.8% |
| Cc1cc(C)c(/C=C2\Oc3cc(O)cc(O)c3C2=O)[nH]1 [Example 7t, (Z)-4,6-Dihydroxy-2-[(3,5-dimethylpyrrole)methylene]benzofuran-3(2H)-one] | 26.4% |
| COc1ccc(/C=C2\Oc3cc(O)cc(O)c3C2=O)cc1 [Example 9, (Z)-4,6-Dihydroxy-2-(4-methoxybenzylidene)benzofuran-3(2H)-one] | 10.7% |
| CCOc1ccc(/C=C2\Oc3cc(O)cc(O)c3C2=O)cc1 [Example 9a, (Z)-4,6-Dihydroxy-2-(4'-ethoxybenzylidene)benzofuran-3(2H)-one] | 5.25% |
| O=C1/C(=C/c2ccccc2O)Oc2cc(O)cc(O)c21 [Example 9c] | 12.8% |
| COc1cc(/C=C2\Oc3cc(O)cc(O)c3C2=O)ccc1O [Example 9d] | 3.92% |

Same assay, conditions: 10^-5M; 24 hours

| Compound | Inhibition of human tyrosinase after application on normal human melanocytes, percentage inhibition |
| --- | --- |
| O=C1/C(=C/c2ccccc2)Oc2cc(O)cc(O)c21 [Example 7, (Z)-2-Benzylidene-(4,6-dihydroxy) benzofuran-3(2H)-one] | 34.85 ± 3.04% |

Same assay, conditions: 10^-5M; 24 hours; read-out: Inhibition of human tyrosinase after application on normal human melanocytes, percentage inhibition

| Compound | inhibition at 10 µM |
| --- | --- |
| O=c1cc(-c2ccc(O)cc2)oc2cc(O)cc(O)c12 [Apigenin, reference compound] | -40.8 ± 7.68% |
| O=c1cc(-c2ccccc2)oc2cc(O)cc(O)c12 [Chrysin, reference compound] | -6.1 ± 22.9% |
| CCc1ccc(/C=C2\Oc3cc(O)ccc3C2=O)cc1 [Example 3a, (Z)-2-(4'-Ethyl)Benzylidene-6-Hydroxybenzofuran-3(2H)-one] | 23.9% |
| CCc1ccccc1/C=C1\Oc2cc(O)ccc2C1=O [Example 3b, (Z)-2-(2'-Ethyl)Benzylidene-6-Hydroxybenzofuran-3(2H)-one] | 0% |
| COc1cc(OC)c2c(c1)O/C(=C\c1ccc(S(=O)(=O)O)cc1)C2=O [Example 5e, (Z)-4,6-dimethoxy-2-(4'-sulfonatebenzylidene)benzofuran-3(2H)-one] | 1.44% |
| COc1cc(OC)c2c(c1)O/C(=C\c1ccc(S(=O)(=O)O)cc1S(=O)(=O)O)C2=O [Example 5f, (Z)-4,6-dimethoxy-2-(2',4'-disulfonatebenzylidene)benzofuran-3(2H)-one] | 2.88% |
| COc1cc(OC)c2c(c1)O/C(=C\c1ccco1)C2=O [Example 5m, (Z)-4,6-Dimethoxy-2-[(furan)methylene]benzofuran-3(2H)-one] | 6.4% |
| CCc1ccc(/C=C2\Oc3cc(OC)cc(OC)c3C2=O)o1 [Example 5n, (Z)-4,6-Dimethoxy-2-[(5-ethylfuran)methylene]benzofuran-3(2H)-one] | 0% |
| COc1cc(OC)c2c(c1)O/C(=C\c1cc(C)c(C)o1)C2=O [Example 5o, (Z)-4,6-Dimethoxy-2-[(4,5-dimethylfuran)methylene]benzofuran-3(2H)-one] | 12.1% |
| COc1cc(OC)c2c(c1)O/C(=C\c1cccs1)C2=O [Example 5p, (Z)-4,6-Dimethoxy-2-[(thiophene)methylene]benzofuran-3(2H)-one] | 6.4% |
| COc1cc(OC)c2c(c1)O/C(=C\c1ccc(C)s1)C2=O [Example 5q, (Z)-4,6-Dimethoxy-2-[(5-methylthiophene)methylene]benzofuran-3(2H)-one] | 0% |
| CCc1ccc(/C=C2\Oc3cc(OC)cc(OC)c3C2=O)s1 [Example 5r, (Z)-4,6-Dimethoxy-2-[(5-ethylthiophene)methylene]benzofuran-3(2H)-one] | 2.1% |
| COc1cc(OC)c2c(c1)O/C(=C\c1[nH]c(C)cc1C)C2=O [Example 5t, (Z)-4,6-Dimethoxy-2-[(3,5-dimethylpyrrole)methylene]benzofuran-3(2H)-one] | 0% |
| O=C1/C(=C/c2ccccc2)Oc2cc(O)cc(O)c21 [Example 7, (Z)-2-Benzylidene-(4,6-dihydroxy) benzofuran-3(2H)-one] | 34.9% |
| O=C1/C(=C/c2ccc(S(=O)(=O)O)cc2)Oc2cc(O)cc(O)c21 [Example 7e] | 4.83% |
| CCCc1ccc(/C=C2\Oc3cc(O)cc(O)c3C2=O)cc1 [Example 7h] | 26.9% |
| CC(C)c1ccc(/C=C2\Oc3cc(O)cc(O)c3C2=O)cc1 [Example 7i] | 31.9% |
| CC(C)(C)c1ccc(/C=C2\Oc3cc(O)cc(O)c3C2=O)cc1 [Example 7k] | 25.1% |
| CCc1ccccc1/C=C1\Oc2cc(O)cc(O)c2C1=O [Example 7l] | 6.1% |
| O=C1/C(=C/c2ccco2)Oc2cc(O)cc(O)c21 [Example 7m, (Z)-4,6-Dihydroxy-2-[(furan)methylene]benzofuran-3(2H)-one] | 6.4% |
| CCc1ccc(/C=C2\Oc3cc(O)cc(O)c3C2=O)o1 [Example 7n, (Z)-4,6-Dihydroxy-2-[(5-ethylfuran)methylene]benzofuran-3(2H)-one] | 13.4% |
| Cc1cc(/C=C2\Oc3cc(O)cc(O)c3C2=O)oc1C [Example 7o, (Z)-4,6-Dihydroxy-2-[(4,5-dimethylfuran)methylene]benzofuran-3(2H)-one] | 4.5% |
| O=C1/C(=C/c2cccs2)Oc2cc(O)cc(O)c21 [Example 7p, (Z)-4,6-Dihydroxy-2-[(thiophene)methylene]benzofuran-3(2H)-one] | 15.3% |
| Cc1ccc(/C=C2\Oc3cc(O)cc(O)c3C2=O)s1 [Example 7q, (Z)-4,6-Dihydroxy-2-[(5-methylthiophene)methylene]benzofuran-3(2H)-one] | 7% |
| CCc1ccc(/C=C2\Oc3cc(O)cc(O)c3C2=O)s1 [Example 7r, (Z)-4,6-Dihydroxy-2-[(5-ethylthiophene)methylene]benzofuran-3(2H)-one] | 0% |
| Cc1cc(C)c(/C=C2\Oc3cc(O)cc(O)c3C2=O)[nH]1 [Example 7t, (Z)-4,6-Dihydroxy-2-[(3,5-dimethylpyrrole)methylene]benzofuran-3(2H)-one] | 0% |
| COc1ccc(/C=C2\Oc3cc(O)cc(O)c3C2=O)cc1 [Example 9, (Z)-4,6-Dihydroxy-2-(4-methoxybenzylidene)benzofuran-3(2H)-one] | 14.1% |
| CCOc1ccc(/C=C2\Oc3cc(O)cc(O)c3C2=O)cc1 [Example 9a, (Z)-4,6-Dihydroxy-2-(4'-ethoxybenzylidene)benzofuran-3(2H)-one] | 19.9% |
| O=C1/C(=C/c2ccccc2O)Oc2cc(O)cc(O)c21 [Example 9c] | 4.32% |
| COc1cc(/C=C2\Oc3cc(O)cc(O)c3C2=O)ccc1O [Example 9d] | 20.2% |

Same assay, conditions: read-out: Inhibition of human tyrosinase after application on normal human melanocytes, percentage inhibition

| Compound | inhibition at 10 µM | inhibition at 100 µM |
| --- | --- | --- |
| COc1cc(OC)c2c(c1)O/C(=C\c1ccc[nH]1)C2=O [Example 5s, (Z)-4,6-Dimethoxy-2-[(pyrrole)methylene]benzofuran-3(2H)-one] | 0% | 13.7% |
| O=C1/C(=C/c2ccc[nH]2)Oc2cc(O)cc(O)c21 [Example 7s, (Z)-4,6-Dihydroxy-2-[(pyrrole)methylene]benzofuran-3(2H)-one] | 9.1% | 22.8% |
